This passage reports IC50 results from PubChem BioAssay AID1238 (The Scripps Research Institute Molecular Screening Center, 2008).

Active and inactive are the calls of the source. No rule for the calls is given here.

The test system of this assay is beta-lactamase reporter cell line, FRET read-out, counterscreen. The assay can be described thus: beta-lactamase reporter inhibitors, potency curves, dose response, counter-screen for GALR2 antagonist project, cell-based, FRET readout (AID 1238).

What is called IC50 is the concentration that gives 50% inhibition. Turning to `C1=C(CCNc2ncnc3c2[nH]c2ccccc23)CCCC1`, the IC50 was > 42 µM (inactive).

With `Cc1cc(C(=O)CSc2nc3ccccc3[nH]2)c(C)n1CC1CCCO1` (stereo not drawn), the IC50 is > 42 µM (inactive). For `CC(=O)c1c(C)[nH]c(C(=O)OCC(=O)Nc2ccc(Cl)cc2[N+](=O)[O-])c1C` the value was > 42 µM (inactive); for `CC(=O)c1c(C)[nH]c(C(=O)OCCCCN2C(=O)c3ccccc3C2=O)c1C`, > 42 µM (inactive); for `CCCOc1ncnc2c1[nH]c1ccccc12`, > 42 µM (inactive). Regarding `CCOc1ccc(S(=O)(=O)NCc2ccncc2)cc1`, the IC50 was > 42 µM (inactive). Regarding `Cc1ccc2[nH]c3c(N4CCc5ccccc5C4)ncnc3c2c1`, the IC50 is > 42 µM (inactive).

Take `CN(C(=S)NC1CCCCC1)C1(c2ccccc2Cl)CCCCC1=O` (stereo not drawn): the IC50 is > 42 µM (inactive). Turning to `CCOC(=O)COc1ccc(S(=O)(=O)NCc2ccncc2)cc1`, the IC50 is > 42 µM (inactive). For `Cc1ccc(S(=O)(=O)CC2CSc3nc4ccccc4n32)cc1` (stereo not drawn) the value was > 42 µM (inactive). For `O=C(Cn1ncc(Cl)c(Cl)c1=O)N1CCN(S(=O)(=O)c2ccc3ccccc3c2)CC1`, the IC50 is > 14 µM (inactive).

Turning to `N#C/C(=C\c1cccs1)c1nc2ccccc2[nH]1`, the IC50 was > 42 µM (inactive).

On to `Cc1cccc(C(=O)Nc2ccc(C(=O)/C=C/c3cccnc3)cc2)c1`, for which the IC50 was 17.9 µM (inactive). For `Cc1ccc(S(=O)(=O)NCc2ccncc2)cc1` the value was > 42 µM (inactive). The result for `CNc1nc2cc([N+](=O)[O-])c([N+](=O)[O-])cc2nc1NC` reads > 42 µM (inactive); that for `Cn1nc(C(C)(C)C)cc1C(=O)NCc1ccc(N2CCCC2=O)cc1`, > 42 µM (inactive); that for `c1cnc2c(c1)ccc1cccnc12`, > 42 µM (inactive). For `O=C(Cc1cccs1)Nc1cccc(-c2nc3cc4ccccc4cc3[nH]2)c1` the value was > 42 µM (inactive); for `COc1cc(/C=C/[N+](=O)[O-])ccc1O`, 11.1 µM (inactive). In the case of `O=S(=O)(NCc1ccncc1)c1ccc(Br)s1`, the IC50 is > 42 µM (inactive). For `CCc1ccccc1NC(=O)CN(C)C(=O)Cn1ncc(Cl)c(Cl)c1=O` the value was 17.1 µM (inactive).

For the molecule `O=C(/C=C/Sc1ncn[nH]1)c1ccc(Cl)cc1`, the IC50 was 17 µM (inactive). The result for `O=[N+]([O-])c1cc(-c2ncccn2)c([N+](=O)[O-])s1` reads 9.61 µM; that for `CC(=O)SC(C[N+](=O)[O-])c1cn(C(C)=O)c2ccccc12` (stereo not drawn), 17.1 µM (inactive). For `c1ccc2c(c1)[nH]c1c(NCC3CCCO3)ncnc12` (stereo not drawn) the value was > 42 µM (inactive); for `CCOC(=O)c1ccc(N2C(=O)CC(N3CCC(O)(c4ccc(Br)cc4)CC3)C2=O)cc1` (stereo not drawn), > 42 µM (inactive); for `CCn1c2ccc(C)cc2c2nc3cc(C(=O)O)ccc3nc21`, > 42 µM (inactive). For `COc1ccc(CCNc2c(C)c(C)nc3ncnn23)cc1`, the IC50 is > 42 µM (inactive). The result for `CC1CCC/C=C/C2CC(O)CC2C(O)/C=C/C(=O)O1` (stereo not drawn) reads > 42 µM (inactive); that for `CCOC(=O)N1CCN(c2ncnc3c2[nH]c2ccc(F)cc23)CC1`, > 42 µM (inactive); that for `O=C(/C=C/c1ccc(Cl)cc1)NC(=S)Nc1ccc(NC(=O)c2ccco2)cc1`, > 14 µM (inactive). For `CCOC(=O)c1cc([N+](=O)[O-])c([N+](=O)[O-])cc1NC(C)=O` the value was 7.53 µM.

On to `CC(=O)Nc1ccccc1OCC(=O)c1cc(C)n(Cc2cccs2)c1C`, for which the IC50 is > 42 µM (inactive).

For `Cc1nnc(SCC(=O)Nc2cccc(S(=O)(=O)N(C)c3ccccc3)c2)s1`, the IC50 was > 42 µM (inactive). For `CCCCOc1ncnc2c1[nH]c1ccc(F)cc12` the value was > 42 µM (inactive); for `Cc1cc(C)c(S(=O)(=O)NCc2ccncc2)c(C)c1`, > 42 µM (inactive). For `CN(C)c1ccc(NC2=C(Cl)C(=O)c3ccccc3C2=O)cc1` the value was > 14 µM (inactive).

As to `Cc1cc(Nc2cccc(Cl)c2)nc(NCc2ccccc2)n1`, the IC50 is > 14 µM (inactive). Regarding `COC(=O)c1ccc(COC(=O)c2[nH]c(C)c(C(C)=O)c2C)o1`, the IC50 was > 42 µM (inactive). For `Cc1sc2ncnc(NCCc3ccc(S(N)(=O)=O)cc3)c2c1C`, the IC50 is > 42 µM (inactive). Take `O=C(Nc1ccc2nc(-c3cccnc3)[nH]c2c1)C12CC3CC(CC(C3)C1)C2`: the IC50 is > 42 µM (inactive). Take `Cc1nc2ccc(NC(=O)c3cc(S(=O)(=O)N(C)c4ccccc4)ccc3Cl)cc2s1`: the IC50 was > 42 µM (inactive). For `c1ccc2c(c1)OCC(CNc1ncnc3sccc13)O2` (stereo not drawn), the IC50 is > 42 µM (inactive).
